From article PMC9304282, “Relating Conformational Equilibria to Conformer‐Specific Lipophilicities: New Opportunities in Drug Discovery” (Angewandte Chemie (International Ed. in English), 2021)
Several values for one entry are separate records, joined by “and”; a condition that tells them apart may be missing. Equal entries are not always repeated. Where two headings read alike, the source gives them in different places.

Tests used:
[1] = logP and conformer-specific logp determination by 19F NMR (octanol/water partitioning); format: physicochemical; settings: for logP: n-octanol/water, octanol/water, 19F NMR
Excerpt: The principle of the strategy for logp optimization, and of the direct logp measurement, is illustrated for amide rotamers (Figure 2) in slow exchange in solution, where each rotamer signal can be integrated directly. This constitutes a system with four coupled equilibria of conformers between (refers to p) and within (refers to K) the two phases (Figure 2A). Our lipophilicity measurement procedure[18] involves acquiring a ^19F NMR spectrum of each phase after phase separation (Figure 2B), and measuring integration relative to an added internal reference. Three peaks are observed: one corresponding to the reference, and two corresponding to each amide rotamer. A ρ‐value for a given rotamer in a given phase is defined as the integration ratio of the rotamer signal and that of the reference (Eq. 5). Through taking the ratio of the ρ‐values of a rotamer, Equation 6 can be obtained,[18] showing that its logp equals the known logP of the reference plus the log of the ratio of its ρ‐values. The overall logP of the amide is then determined by using the integration sum of its rotamer signals using the same equation.[18]
Linclau et al – supporting information 8
3 The logP determination by 19F NMR
Lipophilicities were determined using a previously published protocol:[1] to a 10 mL pear-shaped flask was added the compound (1.0 - 10 mg) for logP determination, the reference compound (1.0 - 10 mg, with known logP value, e.g., 2,2,2-trifluoroethanol, logP: +0.36), water (2 mL) and n-octanol (2 mL). The resulting biphasic mixture was stirred (at 600 rpm) for 2 h at 25 °C, and then left without stirring for 16 h at 25 °C to allow phase separation. An aliquot of 0.5 mL was taken from each phase using 1 mL syringes with long needles and added to two separate NMR tubes. A deuterated NMR solvent (0.1 mL, e.g., acetone-d6), or a capillary tube containing deuterated NMR solvent, was added to the NMR tubes to enable signal locking.
Because of the volatility of the used compounds, the NMR tubes were sealed using a blowtorch. For NMR samples with directly added deuterated solvent, the tubes were inverted 20 times for mixing. For 19F{1H} NMR experiments, NMR parameters were set as follows: D1 30 sec for the octanol sample, D1 60 sec for the water sample; and O1P centered between two diagnostic fluorine peaks. If needed, an increased number of transients (NS) and/or narrower spectral window (SW) for a good S/N ratio (typically >300) was applied.
After NMR data processing, integration ratios ρoct and ρaq (ρoct is defined as the integration ratio between the compound and the reference compound in the octanol sample; likewise for ρaq) were obtained, and used in the equation (logPX = logPref + log(ρoct/ρaq)) to obtain the logP value of the compound. The logP measurement of each compound was run in triplicate. LogP values of non-fluorinated compounds were taken from the literature.
The standard deviation (σ) was calculated using the formula: […]
Where xi are the individual estimated logP values and x̅ is the mean average.
(§1) Linclau et al – supporting information 21
(§2) 4.3 Detailed experimental data for the logP determinations (roct and rwat values for each
(§3) 4.3.1 Standard NMR settings
(§4) Standard NMR parameter setting: SW, 300 ppm; centered O1P; NS 64; D1 30 sec (octanol sample), D1 60 sec (water sample). Any change from standard setting was described for each compound. Unless specified otherwise 2,2,2-trifluoroethanol (logP: +0.36) was used as the reference compound. […]
(§5) Reference - 1-Fluoropropan-2-ol
(§6) Compound Experimental ρ /ρ LogP Average Error
(§7) (octanol/water) oct wat LogP
(§8) Ratio of E:Z-rotamers, and K value:
(§9) Octanol phase Water phase
(§10) Conformation ρ /ρ LogP Average Error

[2] = amide rotamer ratio (K value) in octanol and water phase by 19F NMR integration; format: physicochemical; settings: experimental
Excerpt: In the closed equilibrium system shown in Figure 2A, the ratio of the p‐values equates to the ratio of the K‐values ((Eq. 7), Figure 2C), so that the difference in logp values equals the log of the K‐value ratio (Eq. 8). In other words: the lipophilicity difference between two conformers is directly related to the change between their equilibrium concentration ratios in water and octanol. The K‐values can be obtained through integration measurement (Eq. 8).
The ρ and K determinations require assignment of each fluorine signal in each phase to a particular rotamer, as it was observed that the relative position of cis‐and trans‐amide rotamer resonances in the ^19F NMR spectrum in octanol was not always the same as that in water. Conformer signal assignment in the water phase is easily accomplished by a control experiment using (octanol‐saturated) D2O by standard NOESY analysis combined with peak integration (see Supporting Information). As perdeuterated octanol is very expensive, this was experimentally non‐trivial for cases when the huge octanol solvent R‐CH 2OH signal and its ^13C satellites obscure proton resonances that are required for rotamer assignment. Solvent suppression techniques are impractical, and skew the integration ratio. We therefore introduced 1,1‐dideuteriooctanol (C7H15CD2OH), which considerably facilitated rotamer assignment. It is prepared on large scale by a modified Bouveault–Blanc reduction[20] of cheap methyl octanoate with EtOD as deuterium source (see Supporting Information).
as §1, §2, §3, §4, §5, §6, §7, §8, §9, §10

[3] = difference between E and Z rotamer logp
[4] = unrounded mean, read-out: logP, mean as printed in column Error (±σ)
[5] = unrounded mean, read-out: logp E rotamer, mean as printed in column Error (±σ)
[6] = unrounded mean, read-out: logp Z rotamer, mean as printed in column Error (±σ)
[7] = 25 °C, sum of rotamer signals, read-out: logP (macroscopic lipophilicity, average)
[8] = difference between trans and cis rotamer logp
[9] = unrounded mean, read-out: logp cis rotamer, mean as printed in column Error (±σ)
[10] = unrounded mean, read-out: logp trans rotamer, mean as printed in column Error (±σ)

Row | Δlogp [1, 3] | logP [1, 4] | logP [1, 5] | logP [1, 6] | logP [1, 7] | KE/Z oct (ratio of E:Z rotamers) ([2]; octanol phase) | Ratio Z/E (K value in parentheses) ([2]; octanol phase) | KE/Z wat (ratio of E:Z rotamers) ([2]; water phase) | Ratio Z/E (K value in parentheses) ([2]; water phase) | Δlogp [1, 8] | logP [1, 9] | logP [1, 10] | Kt/c oct (ratio of trans/cis rotamers) ([2]; octanol phase) | Ratio c/t ([2]; octanol phase) | Kt/c wat (ratio of trans/cis rotamers) ([2]; water phase) | Ratio c/t ([2]; water phase) | logP ([1]; cis amide rotamer, read-out: logp (cis)-rotamer (conformer-specific, average)) | SMILES
1 | 0.06 | -0.568 | -0.602 | -0.538 | -0.57 | 0.75 | 1.33 | 0.86 | 1.16 |  |  |  |  |  |  |  |  | CC(=O)N1CCC(F)C1 (stereo not shown) [compound 2, N-Acetyl-3-fluoropyrrolidine]
2 |  | -0.605 |  |  | -0.6 |  |  |  |  | 0.09 | -0.529 | -0.618 | 5.29 | 0.19 | 6.49 | 0.15 |  | COC(=O)[C@@H]1C[C@@H](F)CN1C(C)=O [6a, N-acetyl-4R-FPro-OMe]
3 | 0.06 | -0.117 | -0.153 | -0.089 | -0.12 | 0.72 | 1.4 and 1.39 | 0.84 | 1.2 and 1.19 |  |  |  |  |  |  |  |  | CC(=O)N1CCC(F)(F)C1 [compound 3, N-Acetyl-3,3-difluoropyrrolidine]
4 |  | -0.196 |  |  | -0.2 |  |  |  |  |  | -0.035 | -0.256 | 2.09 |  | 3.48 |  |  | COC(=O)[C@@H]1CC(F)(F)CN1C(C)=O [7a, N-Acetyl-4,4-F2Pro-OMe]
5 | -0.21 | 0.272 | 0.378 | 0.174 | 0.27 | 1.17 | 0.85 | 0.73 | 1.37 |  |  |  |  |  |  |  |  | CC(=O)N1CCCC(F)(F)C1 [compound 5, N-Acetyl-3,3-difluoropiperidine]
6 |  | -0.888 |  |  | -0.89 |  |  |  |  | -0.11 | -0.978 | -0.866 | 4.76 | 0.21 | 3.68 | 0.27 |  | CC(=O)N1CC(F)(F)C[C@H]1C(=O)N(C)C [7b, N-Acetyl-4,4-F2Pro-NMe2]
7 |  | -1.16 |  |  | -1.16 |  |  |  |  | -0.27 | -1.39 | -1.12 | 8.29 | 0.12 | 4.44 | 0.23 | -1.39 | CC(=O)N1C[C@H](F)C[C@H]1C(=O)N(C)C [6b, N-acetyl-(2S,4R)-4-fluoroproline dimethyl amide]
8 | -0.19 | -0.1 | -0.015 | -0.198 | -0.1 | 1.43 | 0.70 | 0.95 | 1.05 |  |  |  |  |  |  |  |  | CC(=O)N1CCCC(F)C1 (stereo not shown) [compound 4, N-Acetyl-3-fluoropiperidine]
